Reference: ChEMBL document CHEMBL1149088, “A non-peptide NK1 receptor agonist showing subpicomolar affinity” (J Med Chem, 2004)

Key:
Substance-P receptor [1] = molecular target: T1, Substance-P receptor (Homo sapiens, UniProt P25103); conditions: UC11MG
Substance-P receptor [2] = molecular target: T1, Substance-P receptor; test: Binding affinity against human Tachykinin receptor 1 expressed in astrocytoma UC11MG cells using [125I]- SP radioligand; assay type: cell-based
Endothelial cell [3] = test: Concentration required to produce maximum stimulation in tritiated inositol monophosphate (IP1) level in postcapillary endothelial cells isolated from bovine heart (CVEC); assay type: functional, cell-based; conditions: Bos taurus
Endothelial cell [4] = test: Concentration required to produce cyclic GMP levels in postcapillary endothelial cells isolated from bovine heart (CVEC); assay type: functional, cell-based; conditions: Bos taurus
Endothelial cell [5] = test: Concentration required to produce maximum effect on postcapillary endothelial cells isolated from bovine heart (CVEC) proliferation; assay type: functional, cell-based; conditions: Bos taurus
Substance-P receptor [6] = molecular target: T1, Substance-P receptor; test: Inhibition of labeled SP total binding against human Tachykinin receptor 1 expressed in astrocytoma UC11MG cells by the second binding component; assay type: cell-based

T1 sequence (P25103 whole entry): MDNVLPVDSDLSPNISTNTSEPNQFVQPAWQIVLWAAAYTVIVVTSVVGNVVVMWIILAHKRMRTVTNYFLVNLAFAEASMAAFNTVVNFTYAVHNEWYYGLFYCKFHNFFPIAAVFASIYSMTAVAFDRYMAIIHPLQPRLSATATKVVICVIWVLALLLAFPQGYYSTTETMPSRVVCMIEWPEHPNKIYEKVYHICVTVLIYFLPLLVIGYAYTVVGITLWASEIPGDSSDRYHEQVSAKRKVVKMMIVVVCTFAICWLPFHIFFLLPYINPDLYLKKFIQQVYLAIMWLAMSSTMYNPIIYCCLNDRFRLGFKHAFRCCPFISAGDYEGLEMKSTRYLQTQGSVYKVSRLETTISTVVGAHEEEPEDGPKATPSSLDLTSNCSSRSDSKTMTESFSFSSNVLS

Binding (Substance-P receptor [1]) [%] | IC50 (Substance-P receptor [2]) [nM] | SMILES | other results
57 | 26 | O=C(NCc1cc(C(F)(F)F)cc(C(F)(F)F)c1)c1c(CCl)nc2ccccc2c1-c1ccccc1 | –
100 | 0.0001 | O=C(NCc1cc(C(F)(F)F)cc(C(F)(F)F)c1)c1c(CO)nc2ccccc2c1-c1ccccc1 | Concentration (Endothelial cell [3]): 1000 nM; Concentration (Endothelial cell [4]): 100 nM; Concentration (Endothelial cell [5]): 0.1 nM
78 | 0.075 | Cc1nc2ccccc2c(-c2ccccc2)c1C(=O)NCc1cc(C(F)(F)F)cc(C(F)(F)F)c1 | IC50 (Substance-P receptor [6]): 3900 nM
100 | 0.0017 | NCc1nc2ccccc2c(-c2ccccc2)c1C(=O)NCc1cc(C(F)(F)F)cc(C(F)(F)F)c1 | –
71 | 0.01 | O=C(NCc1cc(C(F)(F)F)cc(C(F)(F)F)c1)c1c(CBr)nc2ccccc2c1-c1ccccc1 | –
82 | 0.011 | CNCc1nc2ccccc2c(-c2ccccc2)c1C(=O)NCc1cc(C(F)(F)F)cc(C(F)(F)F)c1 | –
40 | 0.22 | CN(C)Cc1nc2ccccc2c(-c2ccccc2)c1C(=O)NCc1cc(C(F)(F)F)cc(C(F)(F)F)c1 | IC50 (Substance-P receptor [6]): 11 nM

The remaining lines, values behind:

SMILES | Binding (Substance-P receptor [1]) [%] | IC50 (Substance-P receptor [2]) [nM] | other results
CN(Cc1cc(C(F)(F)F)cc(C(F)(F)F)c1)C(=O)c1c(CN)nc2ccccc2c1-c1ccccc1 | 100 | 9 | –
CN(Cc1cc(C(F)(F)F)cc(C(F)(F)F)c1)C(=O)c1c(CBr)nc2ccccc2c1-c1ccccc1 | 100 | 52 | –
O=C(NCc1cc(C(F)(F)F)cc(C(F)(F)F)c1)c1cnc2ccccc2c1-c1ccccc1 | – | > 1000 | –
CN(Cc1cc(C(F)(F)F)cc(C(F)(F)F)c1)C(=O)c1cnc2ccccc2c1-c1ccccc1 | 83 | 0.03 | –
Ic1ccccc1CN[C@@H]1C2CCN(CC2)[C@@H]1C(c1ccccc1)c1ccccc1 | 100 | 1.6 | –
CN1CCN(Cc2nc3ccccc3c(-c3ccccc3)c2C(=O)NCc2cc(C(F)(F)F)cc(C(F)(F)F)c2)CC1 | – | > 1000 | –
CN(Cc1ccccc1)Cc1nc2ccccc2c(-c2ccccc2)c1C(=O)NCc1cc(C(F)(F)F)cc(C(F)(F)F)c1 | 71 | 180 | –
Cc1nc2ccccc2c(-c2ccccc2)c1C(=O)N(C)Cc1cc(C(F)(F)F)cc(C(F)(F)F)c1 | 73 | 3.1 | –
O=C(NCc1cc(C(F)(F)F)cc(C(F)(F)F)c1)c1c(CN2C(=O)c3ccccc3C2=O)nc2ccccc2c1-c1ccccc1 | – | > 1000 | –
COCc1nc2ccccc2c(-c2ccccc2)c1C(=O)N(C)Cc1cc(C(F)(F)F)cc(C(F)(F)F)c1 | 100 | 11 | –
CC(C)(C)[Si](C)(C)OCc1nc2ccccc2c(-c2ccccc2)c1C(=O)NCc1cc(C(F)(F)F)cc(C(F)(F)F)c1 | 100 | 17 | –
CN(Cc1cc(C(F)(F)F)cc(C(F)(F)F)c1)C(=O)c1c(CO)nc2ccccc2c1-c1ccccc1 | 75 | – | –
